Measured values reported in the NIST ThermoML archive (doi:10.1021/je300736k).
± gives the expanded uncertainty stated by the source.

Settings: Liquid, Closed cell (Static) method

Compound	vapor or sublimation pressure (278.15 K) [kPa]	vapor or sublimation pressure (283.15 K) [kPa]	vapor or sublimation pressure (288.15 K) [kPa]	vapor or sublimation pressure (293.15 K) [kPa]	vapor or sublimation pressure (298.15 K) [kPa]	vapor or sublimation pressure (303.15 K) [kPa]	vapor or sublimation pressure (308.15 K) [kPa]	vapor or sublimation pressure (313.15 K) [kPa]	vapor or sublimation pressure (318.15 K) [kPa]	vapor or sublimation pressure (323.15 K) [kPa]
CC12CCC(CC1)C(C)(C)O2 [1,3,3-trimethyl-2-oxabicyclo[2.2.2]octane]	0.071 ± 0.026	0.093 ± 0.026	0.13 ± 0.026	0.178 ± 0.026	0.253 ± 0.026	0.346 ± 0.026	0.477 ± 0.026	0.627 ± 0.027	0.828 ± 0.027	1.101 ± 0.027
CCCO [propan-1-ol]	0.704 ± 0.027	1.012 ± 0.027	1.449 ± 0.028	2.038 ± 0.028	2.838 ± 0.029	3.866 ± 0.029	5.229 ± 0.03	7.006 ± 0.032	9.295 ± 0.035	12.18 ± 0.037
